Test results published in patent US9999613B2, “2H-chromene derivatives as analgesic agents” (OBSHESTVO S OGRANICHENNOI OTVETSVENNOSTJU “LEOFORS”, priority 2014, dated 2018).
Marks after values point to notes of the source that are not given here.

Assays:
[1] = known drugs, data from ref. [2]; cited from earlier work
outbred mice [2] = experiment: acetic acid induced writhing test (visceral pain model); type: in vivo; conditions: 0.5 mg/kg, intragastric
outbred mice [3] = experiment: as above; type: in vivo
Procedure: (§1) Analgesic activity of compounds of general formula 1 was studied in the model of visceral pain <<acetic acid induced writhing test>> and thermal irritation test <<hot plate>> in white outbred mice of body mass 20-22 g in groups of 8 animals each after single administration in 1÷20 mg/kg doses.
Acetic acid induced writhing test was performed by intraperitoneal administration of 0.1 ml of 0.75% acetic acid to an animal. Activity was assessed by the quantity of writhing movements during 3 min.
Tests were carried out in outbred male mice with body mass 22-25 g. Experimental groups were formed, with 8 animals in each. <<Acetic writhes>> were produced by intraperitoneal administration of 0.75% acetic acid, 0.1 ml per animal. Test compounds were administered once intragastrically an hour before acetic acid administration. Animals that received only acetic acid were used as control. Activity was assessed by the quantity of writhes during 3 min.

outbred mice [4] = experiment: hot plate test (thermal irritation); type: in vivo
Procedure: as §1
Hot plate test characterizes thermal stimulus. The animals were placed on a copper plate, T=54° C. The effect was assessed by the duration of stay of the animal on the hot plate before the first vocalization.
Tests were carried out in outbred male mice of body mass 22-25 g. Experimental groups were formed, with 8 animals in each. The animals were placed on a copper hot plate, T=54° C. The effects were assessed by the duration of animal stay on the hot plate before the first <>, in seconds.
Test compounds were administered once intragastrically an hour before the test. Control animals received the corresponding solvent.

white outbred mice = experiment: acute toxicity, single intragastric administration, Kerber method
outbred mice [5] = experiment: hot plate test (thermal irritation); type: in vivo; conditions: 0.5 mg/kg, intragastric
[6] = known drugs, data from ref. [2]; cited from earlier work; remark: listed apart in the source
[7] = 1 mg/kg dose, compared with sodium diclofenac 10 mg/kg
[8] = 10 mg/kg, intragastric, (control − exp)/control · 100%
[9] = 10 mg/kg, once intragastrically 1 h before 0.75% acetic acid i.p., writhes during 3 min
[10] = 10 mg/kg, intragastric, (exp − control)/control · 100%
[11] = 10 mg/kg, once intragastrically 1 h before test, plate 54° C, time to first vocalization

In the case of `CC(=O)Oc1ccccc1C(=O)O` [Acetylsalicylic acid], the “ED50 in acetic acid induced writhing test” value (from here on “ED50”) [1] is given as 155 mg/kg.

For `CC1CCC2C(C1)OC(c1cccs1)CC2(C)O` (stereo not shown) [Compound 1a, 4,7-dimethyl-2-(thiophene-2-yl)octahydro-2H-chromene-4-ol], the “Pain reduction, %” value (outbred mice [2]) was 27%, the “Writhes, quantity (Agent)” value (outbred mice [2]) was 7.4 ± 1.3 and the “analgesic activity in acetic acid induced writhing test (in words)” value (outbred mice [3]; [7]) was “potent analgesic activity”. The “Pain reduction, %” value (outbred mice [3]; 1 mg/kg, intragastric) was 71%, the “Writhes, quantity (Agent)” value (outbred mice [3]; 1 mg/kg, intragastric) was 2.4 ± 0.8 and the “Pain reduction, %” value (outbred mice [3]; 5 mg/kg, intragastric) was 42%. The “Writhes, quantity (Agent)” value (outbred mice [3]; 5 mg/kg, intragastric) was 4.9 ± 1.0, the “analgesic activity in acetic acid induced writhing test (in words)” value (outbred mice [3]; 10 mg/kg dose) was “more effective than sodium diclofenac” and the “Pain reduction, %” value (outbred mice [3]; [8]) was 55%. The “Writhes, quantity (Agent)” value (outbred mice [3]; [9]) was 4.3 ± 1.1, the “Pain reduction, %” value (outbred mice [3]; 20 mg/kg, intragastric) was 25% and the “Writhes, quantity (Agent)” value (outbred mice [3]; 20 mg/kg, intragastric) was 8.3 ± 0.5. For the same molecule, the “analgesic activity in hot plate test (in words)” value (outbred mice [4]; [7]) was “potent analgesic activity”, the “Hot plate, sec. (Agent)” value (outbred mice [4]; 1 mg/kg, intragastric) was 16.5 ± 1.9 s and the “Protection, %” value (outbred mice [4]; 1 mg/kg, intragastric) was 59%. The “Hot plate, sec. (Agent)” value (outbred mice [4]; 5 mg/kg, intragastric) was 16.3 ± 1.6 s, the “Protection, %” value (outbred mice [4]; 5 mg/kg, intragastric) was 57% and the “analgesic activity in hot plate test (in words)” value (outbred mice [4]; 10 mg/kg dose) was “Reliable analgesic activity”. The “Protection, %” value (outbred mice [4]; [10]) was 34%, the “Hot plate, sec. (Agent)” value (outbred mice [4]; [11]) was 13.1 ± 1.2 s and the “Hot plate, sec. (Agent)” value (outbred mice [4]; 20 mg/kg, intragastric) was 16.0 ± 2.6 s. For the same molecule, the “Protection, %” value (outbred mice [4]; 20 mg/kg, intragastric) was 50%, the “acute toxicity classification (in words)” value (white outbred mice) was “moderately toxic” and the “Hot plate, sec. (Agent)” value (outbred mice [5]) was 20.3 ± 2.2 s. The “Protection, %” value (outbred mice [5]) was 28%.

For `Cc1ccsc1C1CC(C)(O)C2CCC(C)CC2O1` (stereo not shown) [Compound 1b, 4,7-dimethyl-2-(3-methylthiophene-2-yl)octahydro-2H-chromene-4-ol], the “Pain reduction, %” value (outbred mice [3]; [8]) was 36*** %, the “Writhes, quantity (Agent)” value (outbred mice [3]; [9]) was 7.0 ± 0.6 and the “Hot plate, sec. (Agent)” value (outbred mice [4]; [11]) was 12.8 ± 1.7 s.

In the case of `Cc1ccc(C2CC(C)(O)C3CCC(C)CC3O2)s1` (stereo not shown) [Compound 1c, 4,7-dimethyl-2-(5-methylthiophene-2-yl)octahydro-2H-chromene-4-ol], the “Pain reduction, %” value (outbred mice [3]; [8]) was 39*** %, the “Writhes, quantity (Agent)” value (outbred mice [3]; [9]) was 6.6 ± 0.5 and the “Hot plate, sec. (Agent)” value (outbred mice [4]; [11]) was 17.4 ± 2.4 s.

With `CC1CCC2C(C1)OC(c1cc(Br)cs1)CC2(C)O` (stereo not shown) [Compound 1d, 4,7-dimethyl-2-(4-bromothiophene-2-yl)octahydro-2H-chromene-4-ol] the “analgesic activity in acetic acid induced writhing test (in words)” value (outbred mice [3]; 10 mg/kg dose) was “more effective than sodium diclofenac”, the “Pain reduction, %” value (outbred mice [3]; [8]) was 63** % and the “Writhes, quantity (Agent)” value (outbred mice [3]; [9]) was 3.6 ± 1.5. For the same molecule, the “Protection, %” value (outbred mice [4]; [10]) was 39% and the “Hot plate, sec. (Agent)” value (outbred mice [4]; [11]) was 13.6 ± 1.7 s.

In the case of `CC1CCC2C(C1)OC(c1ccc(Br)s1)CC2(C)O` (stereo not shown) [Compound 1e, 4,7-dimethyl-2-(5-bromothiophene-2-yl)octahydro-2H-chromene-4-ol], the “Pain reduction, %” value (outbred mice [3]; [8]) was 34* %, the “Writhes, quantity (Agent)” value (outbred mice [3]; [9]) was 6.3 ± 1.2 and the “Protection, %” value (outbred mice [4]; [10]) was 18%. For the same molecule, the “Hot plate, sec. (Agent)” value (outbred mice [4]; [11]) was 11.6 ± 1.0 s.

For `CC1CCC2C(C1)OC(c1ccc([N+](=O)[O-])s1)CC2(C)O` (stereo not shown) [Compound 1f, 4,7-dimethyl-2-(5-nitrothiophene-2-yl)octahydro-2H-chromene-4-ol], the “Pain reduction, %” value (outbred mice [3]; [8]) was 32* %, the “Writhes, quantity (Agent)” value (outbred mice [3]; [9]) was 7.5 ± 1.2 and the “Protection, %” value (outbred mice [4]; [10]) was 20%. The “Hot plate, sec. (Agent)” value (outbred mice [4]; [11]) was 14.5 ± 1.6 s.

In the case of `Cc1c(N(C)CS(=O)(=O)O)c(=O)n(-c2ccccc2)n1C` [Metamizole], the “LD50 (acute toxicity)” value [6] is listed as 3300 mg/kg and the “ED50” value [1] is listed as 55 mg/kg.

In the case of `O=C(O)Cc1ccccc1Nc1c(Cl)cccc1Cl` [Sodium diclofenac, reference compound], the “Pain reduction, %” value (outbred mice [3]; [8]) was 50*** %, the “Writhes, quantity (Agent)” value (outbred mice [3]; [9]) was 5.0 ± 1.1 and the “Protection, %” value (outbred mice [4]; [10]) was 62** %. The “Hot plate, sec. (Agent)” value (outbred mice [4]; [11]) was 15.6 ± 2.4 s and the “ED50” value [1] was 5 mg/kg.
